This is an account of results in patent publication US20250170122A1, “CERTAIN CHEMICAL ENTITIES, COMPOSITIONS AND METHODS” (Intellikine LLC, priority 2009, published 2025).

Data set [1] deals with collagen induced developing arthritis model. As to the kind of experiment: Rat developing type II collagen induced arthritis assay. It is filed as in vivo. The note with it: for increase in ankle diameter over time: dose not stated. The method, then: In order to study the effects of the compounds of the present invention on the autoimmune disease arthritis, a collagen induced developing arthritis model was used. Female Lewis rats were given collagen injections at day 0. Bovine type II collagen was prepared as a 4 mg/ml solution in 0.01 N acetic acid. Equal volumes of collagen and Freund's incomplete adjuvant were emulsified by hand mixing until a bead of the emulsified material held its form in water. Each rodent received a 300 μl injection of the mixture at each injection time spread over three subcutaneous sites on the back.
Oral compound administration began on day 0 and continued through day 16 with vehicle (5% NMP, 85% PEG 400, 10% Solutol) or compounds of the present invention in vehicle or control (e.g. methotrexate) at 12 hour intervals daily. Rats were weighed on days 0, 3, 6, 9-17 and caliper measurements of ankles taken on days 9-17. Final body weights were taken, and then the animals were euthanized on day 17. After euthanization, blood was drawn and hind paws and knees were removed. Blood was further processed for pharmacokinetics experiments as well as an anti-type II collagen antibody ELISA assay. Hind paws were weighed and then with the knees preserved in 10% formalin. The paws and knees were subsequently processed for microcopy. Livers, spleen and thymus were also weighed. Sciatic nerves were prepared for histopathology.
Knee and ankle joints were fixed for 1-2 days and decalcified for 4-5 days. Ankle joints were cut in half longitudinally, knees were cut in half along the frontal plane. Joints were then processed, embedded, sectioned and stained with toluidine blue. Scoring of the joints was done according to the following criteria:
Percent inhibition of paw weight and AUC was calculated using the following formula:
% Inhibition=A−B/A×100 • A=Mean Disease Control—Mean Normal • B=Mean Treated—Mean Normal

Data set [2] relates to p110δ or p110γ relative to p110α, p110β, DNAPK and/or mTor.
Experimental: IC50 values are measured using either a standard TLC assay for lipid kinase activity (described below) or a high-throughput membrane capture assay. Kinase reactions are performed by preparing a reaction mixture containing kinase, inhibitor (2% DMSO final concentration), buffer (25 mM HEPES, pH 7.4, 10 mM MgCl2), and freshly sonicated phosphatidylinositol (100 μg/ml). Reactions are initiated by the addition of ATP containing 10 μCi of γ-32P-ATP to a final concentration 10 or 100 μM and allowed to proceed for 5 minutes at room temperature. For TLC analysis, reactions are then terminated by the addition of 105 μl 1N HCl followed by 160 μl CHCl3:MeOH (1:1). The biphasic mixture is vortexed, briefly centrifuged, and the organic phase is transferred to a new tube using a gel loading pipette tip precoated with CHCl3. This extract is spotted on TLC plates and developed for 3-4 hours in a 65:35 solution of n-propanol:1 M acetic acid. The TLC plates are then dried, exposed to a phosphorimager screen (Storm, Amersham), and quantitated.
Briefly, the assay is a time resolved FRET assay that indirectly measures PIP3 product formed by the activity of a PI3-K. The kinase reaction is performed in a microtitre plate (e.g., a 384 well microtitre plate). The total reaction volume is approximately 20 ul per well. In the first step, each well receives 2 ul of test compound in 20% dimethylsulphoxide resulting in a 2% DMSO final concentration. Next, approximately 14.5 ul of a kinase/PIP2 mixture (diluted in 1× reaction buffer) is added per well for a final concentration of 0.25-0.3 ug/ml kinase and 10 uM PIP2. […] To start the reaction, 3.5 ul of ATP (diluted in 1× reaction buffer) is added per well for a final concentration of 10 uM ATP. The plate is sealed and incubated for 1 hour at room temperature. The reaction is stopped by adding 5 ul of Stop Solution per well and then 5 ul of Detection Mix is added per well. The plate is sealed, incubated for 1 hour at room temperature, and then read on an appropriate plate reader. Data is analyzed and IC50s are generated using GraphPad Prism 5.
DNA-PK can be purchased from Promega and assayed using the DNA-PK Assay System (Promega) according to the manufacturer's instructions.
The cross-activity or lack thereof of one or more compounds of the present invention against mTor can be measured according to any procedures known in the art or methods disclosed below. The compounds described herein can be tested against recombinant mTOR (Invitrogen) in an assay containing 50 mM HEPES, pH 7.5, 1 mM EGTA, 10 mM MgCl2, 2.5 mM, 0.01% Tween, 10 μM ATP (2.5 μCi of μ-32P-ATP), and 3 μg/mL BSA. Rat recombinant PHAS-¼EBP1 (Calbiochem; 2 mg/mL) is used as a substrate. Reactions are terminated by spotting onto nitrocellulose, which is washed with 1 M NaCl/1% phosphoric acid (approximately 6 times, 5-10 minutes each). Sheets are dried and the transferred radioactivity quantitated by phosphorimaging.
Other kits or systems for assaying mTOR activity are commercially available. For instance, one can use Invitrogen's LanthaScreen™ Kinase assay to test the inhibitors of mTOR disclosed herein. This assay is a time resolved FRET platform that measures the phosphorylation of GFP labeled 4EBP1 by mTOR kinase. The kinase reaction is performed in a white 384 well microtitre plate. The total reaction volume is 20 ul per well and the reaction buffer composition is 50 mM HEPES pH7.5, 0.01% Polysorbate 20, 1 mM EGTA, 10 mM MnCl2, and 2 mM DTT.
The test system of data set [3] is adjuvant induced arthritis model. As to the kind of experiment: Adjuvant induced arthritis assay. It is filed as in vivo. The procedure: Isoflurane-anesthetized Lewis rats (200-250 g) were implanted with an intrathecal (IT) catheter. After a 6 d recovery period, all animals except those that appeared to have sensory or motor abnormalities (fewer than 5% of the total number) were used for experiments. For IT administration, 10 μl of drug or saline followed by 10 μl of isotonic saline was injected through the catheter.
Lewis rats were immunized at the base of the tail with 0.1 ml of complete Freund's adjuvant (CFA) on day 0 several days after catheter implantation (n=6/group). Drug (e.g. one or more compounds of the present invention or vehicle) treatment was generally started on day 8 and continued daily until day 20. Clinical signs of arthritis generally begin on day 10, and paw swelling was determined every second day by water displacement plethysmometry.

The subject of data set [4] is LPS-induced lung inflammation model. As to the kind of experiment: LPS-induced lung inflammation assay. It is filed as in vivo, rats. The note with it: oral; bronchoalveolar lavage 6 h after intranasal LPS. The method, then:
To perform the LPS-induced lung inflammation assay, compounds were dosed orally. A group was dosed with vehicle only and dexamethasone (5 mg/kg) was used in another group as positive control. Pulmonary inflammation was determined 6 h after intranasal instillation of LPS (10 μg). The following parameters were evaluated: total number of leukocytes and number of neutrophils in bronchoalveolar lavage (BAL).

Data set [5] concerns OVA-induced allergic lung inflammation model. Put plainly: Ovalbumin-induced lung inflammation assay. It is filed as in vivo, rats. The note with it: oral; bronchoalveolar lavage after 4 daily ovalbumin challenges. The method, then: In the ovalbumin-induced lung inflammation assay, compounds were dosed orally. A group was dosed with vehicle only and dexamethasone (5 mg/kg) was used in another group as positive control. Pulmonary inflammation was determined 4 days after 4 consecutive daily intranasal instillation of ovalbumin. Compounds were given by gavage 30 min before each challenge (4 challenges) at the indicated doses. The following parameters were evaluated: Total number of leukocytes and number of eosinophils in bronchoalveolar lavage (BAL).

The subject of data set [6] is basophilic granulocytes. Put plainly: Basotest assay. To be noted: heparinized whole blood; dust mite or grass extract. It counts as cell-based. The procedure:
The baseotest assay is performed using Orpegen Pharma Basotest reagent kit. Heparinized whole blood is pre-incubated with test compound or solvent at 37° C. for 20 min. Blood is then incubated with assay kit stimulation buffer (to prime cells for response) followed by allergen (dust mite extract or grass extract) for 20 min. The degranulation process is stopped by incubating the blood samples on ice. The cells are then labeled with anti-IgE-PE to detect basophilic granulocytes, and anti-gp53-FITC to detect gp53 (a glycoprotein expressed on activated basophils). After staining red blood cells are lysed by addition of Lysing Solution. Cells are washed, and analyzed by flow cytometry.

The test system of data set [7] is established type II collagen induced arthritis. Put plainly: Rat established type II collagen induced arthritis assay. It counts as in vivo. To be noted: oral. The procedure: In order to examine the dose responsive efficacy of the compounds of the present invention in inhibiting the inflammation, cartilage destruction and bone resorption of 10 day established type II collagen induced arthritis in rats, compounds were administered orally daily or twice daily for 6 days.
Female Lewis rats were anesthetized and given collagen injections prepared and administered as described previously on day 0. On day 6, animals were anesthetized and given a second collagen injection. Caliper measurements of normal (pre-disease) right and left ankle joints were performed on day 9. On days 10-11, arthritis typically occurred and rats were randomized into treatment groups. Randomization was performed after ankle joint swelling was obviously established and there was good evidence of bilateral disease.
After an animal was selected for enrollment in the study, treatment was initiated by the oral route. Animals were given vehicle, control (Enbrel) or compound doses, twice daily or once daily (BID or QD respectively). Dosing was administered on days 1-6 using a volume of 2.5 ml/kg (BID) or 5 ml/kg (QD) for oral solutions. Rats were weighed on days 1-7 following establishment of arthritis and caliper measurements f ankles taken every day. Final body weights were taken on day 7 and animals were euthanized.

SMILES strings stand for the structures. Entries after “also recorded” stand apart in the source; their conditions may differ.

On to `C[C@H](Nc1ncnc2[nH]cnc12)c1cc2cccc(Cl)c2c(=O)n1C1CC1` [compound 270, (S)-3-(1-(9H-purin-6-ylamino)ethyl)-2-cyclopropyl-8-chloro-isoquinolin-1(2H)-one], for which, in data set [1], the “increase in ankle diameter over time” value is given as “reducing the increase in ankle diameter over time”.

As for `C[C@H](Nc1ncnc2[nH]cnc12)c1cc2cccc(F)c2c(=O)n1-c1ccccc1` [Compound 330], in data set [2], the selectivity ratio was no less than 3.

Turning to `Cc1cccc2cc([C@H](C)Nc3ncnc4[nH]cnc34)n(C3CC3)c(=O)c12` [compound 200, (S)-3-(1-(9H-purin-6-ylamino)ethyl)-2-cyclopropyl-8-methylisoquinolin-1(2H)-one], in data set [1], the “increase in ankle diameter over time” value is given as “reducing the increase in ankle diameter over time”.

On to `Nc1ncnc2c1c(-c1cn[nH]c1)nn2Cc1cc2cccc(Cl)c2c(=O)n1-c1cccc(F)c1` [Compound 339], for which the selectivity ratio in data set [2] is no less than 3.

Consider `CNc1ncc(C(F)(F)F)c(N[C@@H](C)c2cc3cccc(Cl)c3c(=O)n2-c2ccccc2)n1` [Compound 354], for which the selectivity ratio in data set [2] is no less than 3.

For `C[C@H](Nc1nc(N)ncc1C(F)(F)F)c1cc2cccc(Cl)c2c(=O)n1-c1ccccc1` [Compound 346], the selectivity ratio in data set [2] was no less than 3.

As for `Cc1csc2ncnc(N[C@@H](C)c3cc4cccc(Cl)c4c(=O)n3-c3ccccc3)c12` [Compound 352], the selectivity ratio in data set [2] was no less than 3.

Turning to `C[C@H](Nc1ncnc2[nH]cnc12)c1cc2cccc(Cl)c2c(=O)n1-c1ccc(F)cc1` [Compound 329], in data set [2], the selectivity ratio was no less than 3.

For `C[C@H](Nc1ncnc2sccc12)c1cc2cccc(Cl)c2c(=O)n1-c1ccccc1` [Compound 343], the selectivity ratio in data set [2] is no less than 3.

Regarding `C[C@H](Nc1ncnc2[nH]cnc12)c1cc2ncccc2c(=O)n1-c1ccccc1` [Compound 357], in data set [2], the selectivity ratio was no less than 3.

Take `C[C@H](Nc1ncnc2c1ncn2C)c1cc2cccc(Cl)c2c(=O)n1-c1ccccc1` [Compound 340]: the selectivity ratio in data set [2] was no less than 3.

With `C[C@H](Nc1ncnc2[nH]cnc12)c1cc2cccc(F)c2c(=O)n1-c1ccc(F)cc1` [Compound 332], the selectivity ratio in data set [2] was no less than 3.

Regarding `Cc1cccc2cc([C@H](C)Nc3ncnc4[nH]cnc34)n(-c3ccccc3)c(=O)c12` [compound 196], the “increase in ankle diameter over time” value in data set [1] was “reducing the increase in ankle diameter over time”.

Consider `[2H]c1nc2c(N[C@@H](C)c3cc4cccc(C)c4c(=O)n3-c3ccccc3)ncnc2[nH]1` [Compound 349], for which the selectivity ratio in data set [2] is no less than 3.

In the case of `[2H]c1nc2c(N[C@@H](C)c3cc4cccc(Cl)c4c(=O)n3C3CC3)ncnc2[nH]1` [Compound 350], in data set [2], the selectivity ratio is no less than 3.

For `C[C@H](Nc1ncnc2[nH]cnc12)c1cc2cccc(Cl)c2c(=O)n1-c1ccccc1` [compound 292, (S)-3-(1-(9H-purin-6-ylamino)ethyl)-8-chloro-2-phenylisoquinoline-1(2H)-one], the “increase in ankle diameter over time” value in data set [3] (dose not stated) and in data set [1] was “reducing the increase in ankle diameter over time” in each case. Also, the “LPS-induced total leukocyte neutrophil influx” value in data set [4] is “inhibiting LPS-induced total leukocyte neutrophil influx”. Moreover, the eosinophil influx entry in data set [5] is “inhibiting eosinophil influx”.

Take `Cc1ccccc1-n1c(Cn2nc(-c3cn[nH]c3)c3c(N)ncnc32)cc2cccc(Cl)c2c1=O` [Compound 336]: the selectivity ratio in data set [2] was no less than 3.

`C[C@H](Nc1ncnc2[nH]cnc12)c1cc2cccc(Cl)c2c(=O)n1-c1cccc(F)c1` [Compound 328]: the selectivity ratio in data set [2] was no less than 3.

On to `CC(=O)Nc1nc2ccc(-c3nn(Cc4cc5cccc(C)c5c(=O)n4-c4ccccc4C)c4ncnc(N)c34)cc2s1` [Compound 53], for which the “average paw volume increase” value in data set [3] (rat, in vivo) was “dose dependent reduction in the average paw volume increase”. Also, the “toxicity or other adverse reaction as measured by weight loss” value in data set [3] (rat, in vivo) is “does not exhibit toxicity or other adverse reaction”. Further, in data set [6], the “inhibition of allergen induced activation of basophilic granulocytes, active range” value is reported as “sub micromolar range”. Moreover, the “mean ankle diameter increase over time” value was “significant reduction in mean ankle diameter increase over time” in data set [7] (once daily dosage); “significant reduction in mean ankle diameter increase over time” in data set [7] (twice daily dosage); “significant reduction in arthritis induced ankle diameter increase over time” in data set [1] (10, 30, and 60 mg/kg at 12 hour intervals, oral, relative to vehicle or methotrexate control). Also, the “ankle histopathology, all categories” value in data set [1] (60 mg/kg) is “statistically significant reduction in all categories of ankle histopathology”. The “serum anti-type II collagen levels” value in data set [1] (10, 20, and 60 mg/kg dosage levels) is “reducing the level of anti-type II collagen antibodies; also recorded: significant reduction”. Besides, the “ankle histopathology (inflammation, pannus, cartilage damage, bone resorption)” value in data set [1] (developing arthritis, oral) is listed as “improving ankle histopathology; also recorded: significant reduction in one or more categories”. Besides, the knee histopathology entry in data set [1] (developing arthritis, oral) is on record as “dose dependent reduction in knee histopathology”.

Consider `C[C@H](Nc1ncnc2[nH]c(Cl)nc12)c1cc2cccc(Cl)c2c(=O)n1-c1ccccc1` [Compound 333], for which, in data set [2], the selectivity ratio is no less than 3.

For `Nc1ncnc2c1c(-c1cn[nH]c1)nn2Cc1cc2cccc(Cl)c2c(=O)n1-c1ccccc1F` [Compound 337], in data set [2], the selectivity ratio was no less than 3.

Turning to `Nc1ncnc2c1c(-c1cn[nH]c1)nn2Cc1cc2cccc(Cl)c2c(=O)n1-c1ccccc1` [Compound 338], in data set [2], the selectivity ratio was no less than 3.

Take `C[C@H](Nc1ncnc2[nH]cnc12)c1cc2cccc(F)c2c(=O)n1-c1cccc(F)c1` [Compound 331]: the selectivity ratio in data set [2] was no less than 3.

For `C[C@H](Nc1ncnc2ccsc12)c1cc2cccc(Cl)c2c(=O)n1-c1ccccc1` [Compound 344], the selectivity ratio in data set [2] is no less than 3.
